Results from PubChem BioAssay (NCI).
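Interpolation was linear, between the two tested concentrations surrounding the appropriate level; five concentrations were tested over 48 hours in 96-well plates. TGI is the concentration that stops growth completely.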

Legend:
Assay in all cases: DTP human tumour cell line panel, 48 h
786-0 renal = system: 786-0 renal
A498 renal = system: A498 renal
A549 NSCLC = system: A549 NSCLC
ACHN renal = system: ACHN renal
BT-549 breast = system: BT-549 breast
CAKI-1 renal = system: CAKI-1 renal
COLO 205 colon = system: COLO 205 colon
DU-145 prostate = system: DU-145 prostate
EKVX NSCLC = system: EKVX NSCLC
HCC-2998 colon = system: HCC-2998 colon
HCT-116 colon = system: HCT-116 colon
HCT-15 colon = system: HCT-15 colon
HOP-62 NSCLC = system: HOP-62 NSCLC
HOP-92 NSCLC = system: HOP-92 NSCLC
HT29 colon = system: HT29 colon
IGROV1 ovarian = system: IGROV1 ovarian
K-562 leukemia = system: K-562 leukemia
KM12 colon = system: KM12 colon
LOX IMVI melanoma = system: LOX IMVI melanoma
M14 melanoma = system: M14 melanoma
MALME-3M melanoma = system: MALME-3M melanoma
MCF7 breast = system: MCF7 breast
MDA-MB-231 breast = system: MDA-MB-231 breast
MDA-MB-435 = system: MDA-MB-435
MDA-N = system: MDA-N
MOLT-4 leukemia = system: MOLT-4 leukemia
NCI-H226 lung = system: NCI-H226 lung
NCI-H23 lung = system: NCI-H23 lung
NCI-H460 lung = system: NCI-H460 lung
NCI-H522 lung = system: NCI-H522 lung
NCI/ADR-RES ovarian = system: NCI/ADR-RES ovarian
OVCAR-3 ovarian = system: OVCAR-3 ovarian
OVCAR-4 ovarian = system: OVCAR-4 ovarian
OVCAR-5 ovarian = system: OVCAR-5 ovarian
OVCAR-8 ovarian = system: OVCAR-8 ovarian
PC-3 prostate = system: PC-3 prostate
RPMI-8226 leukemia = system: RPMI-8226 leukemia
RXF 393 renal = system: RXF 393 renal
SF-268 CNS = system: SF-268 CNS
SF-295 CNS = system: SF-295 CNS
SK-MEL-2 melanoma = system: SK-MEL-2 melanoma
SK-MEL-28 melanoma = system: SK-MEL-28 melanoma
SK-MEL-5 melanoma = system: SK-MEL-5 melanoma
SK-OV-3 ovarian = system: SK-OV-3 ovarian
SN12C renal = system: SN12C renal
SNB-19 CNS = system: SNB-19 CNS
SNB-75 CNS = system: SNB-75 CNS
SR leukemia = system: SR leukemia
SW-620 colon = system: SW-620 colon
T-47D breast = system: T-47D breast
TK-10 renal = system: TK-10 renal
U251 CNS = system: U251 CNS
UACC-257 melanoma = system: UACC-257 melanoma
UACC-62 melanoma = system: UACC-62 melanoma
UO-31 renal = system: UO-31 renal
CCRF-CEM leukemia = system: CCRF-CEM leukemia
HL-60(TB) leukemia = system: HL-60(TB) leukemia
HS 578T breast = system: HS 578T breast
SF-539 CNS = system: SF-539 CNS

For `O=C1Nc2ccc(Cl)cc2C(=O)N2CCC[C@@H]12`, the TGI (786-0 renal) was > 100 µM, the TGI (A498 renal) was > 100 µM and the TGI (A549 NSCLC) was > 100 µM. For the same molecule, the TGI (ACHN renal) was > 100 µM, the TGI (BT-549 breast) was > 100 µM and the TGI (CAKI-1 renal) was > 100 µM. For the same molecule, the TGI (COLO 205 colon) was > 100 µM, the TGI (DU-145 prostate) was > 100 µM and the TGI (EKVX NSCLC) was > 100 µM. The TGI (HCC-2998 colon) was > 100 µM, the TGI (HCT-116 colon) was > 100 µM and the TGI (HCT-15 colon) was > 100 µM. The TGI (HOP-62 NSCLC) was > 100 µM, the TGI (HOP-92 NSCLC) was > 100 µM and the TGI (HT29 colon) was > 100 µM. The TGI (IGROV1 ovarian) was > 100 µM, the TGI (K-562 leukemia) was > 100 µM and the TGI (KM12 colon) was > 100 µM. For the same molecule, the TGI (LOX IMVI melanoma) was > 100 µM, the TGI (M14 melanoma) was > 100 µM and the TGI (MALME-3M melanoma) was > 100 µM. For the same molecule, the TGI (MCF7 breast) was > 100 µM, the TGI (MDA-MB-231 breast) was > 100 µM and the TGI (MDA-MB-435) was > 100 µM. For the same molecule, the TGI (MDA-N) was > 100 µM, the TGI (MOLT-4 leukemia) was > 100 µM and the TGI (NCI-H226 lung) was > 100 µM. The TGI (NCI-H23 lung) was > 100 µM, the TGI (NCI-H460 lung) was > 100 µM and the TGI (NCI-H522 lung) was > 100 µM. The TGI (NCI/ADR-RES ovarian) was > 100 µM, the TGI (OVCAR-3 ovarian) was > 100 µM and the TGI (OVCAR-4 ovarian) was > 100 µM. The TGI (OVCAR-5 ovarian) was > 100 µM, the TGI (OVCAR-8 ovarian) was > 100 µM and the TGI (PC-3 prostate) was > 100 µM. The TGI (RPMI-8226 leukemia) was > 100 µM, the TGI (RXF 393 renal) was > 100 µM and the TGI (SF-268 CNS) was > 100 µM. For the same molecule, the TGI (SF-295 CNS) was > 100 µM, the TGI (SK-MEL-2 melanoma) was > 100 µM and the TGI (SK-MEL-28 melanoma) was > 100 µM. For the same molecule, the TGI (SK-MEL-5 melanoma) was > 100 µM, the TGI (SK-OV-3 ovarian) was > 100 µM and the TGI (SN12C renal) was > 100 µM. The TGI (SNB-19 CNS) was > 100 µM, the TGI (SNB-75 CNS) was > 100 µM and the TGI (SR leukemia) was > 100 µM. The TGI (SW-620 colon) was > 100 µM, the TGI (T-47D breast) was > 100 µM and the TGI (TK-10 renal) was > 100 µM. The TGI (U251 CNS) was > 100 µM, the TGI (UACC-257 melanoma) was > 100 µM and the TGI (UACC-62 melanoma) was > 100 µM. The TGI (UO-31 renal) was > 100 µM.
With `S=C1C(=Nc2ccccc2)N(C2CCCCC2)C(=NC2CCCCC2)N1c1ccccc1` the TGI (786-0 renal) was > 100 µM, the TGI (A498 renal) was > 100 µM and the TGI (A549 NSCLC) was > 100 µM. The TGI (ACHN renal) was > 100 µM, the TGI (CAKI-1 renal) was > 100 µM and the TGI (CCRF-CEM leukemia) was > 100 µM. For the same molecule, the TGI (COLO 205 colon) was > 100 µM, the TGI (DU-145 prostate) was > 100 µM and the TGI (EKVX NSCLC) was > 100 µM. For the same molecule, the TGI (HCC-2998 colon) was > 100 µM, the TGI (HCT-116 colon) was > 100 µM and the TGI (HCT-15 colon) was > 100 µM. For the same molecule, the TGI (HL-60(TB) leukemia) was > 100 µM, the TGI (HOP-62 NSCLC) was > 100 µM and the TGI (HOP-92 NSCLC) was > 100 µM. The TGI (HS 578T breast) was > 100 µM, the TGI (HT29 colon) was > 100 µM and the TGI (IGROV1 ovarian) was > 100 µM. For the same molecule, the TGI (K-562 leukemia) was > 100 µM, the TGI (KM12 colon) was > 100 µM and the TGI (LOX IMVI melanoma) was > 100 µM. The TGI (MALME-3M melanoma) was > 100 µM, the TGI (MDA-MB-231 breast) was > 100 µM and the TGI (MDA-MB-435) was > 100 µM. The TGI (MDA-N) was > 100 µM, the TGI (MOLT-4 leukemia) was > 100 µM and the TGI (NCI-H226 lung) was > 100 µM. For the same molecule, the TGI (NCI-H23 lung) was > 100 µM, the TGI (NCI-H460 lung) was > 100 µM and the TGI (NCI-H522 lung) was 71.8 µM. The TGI (NCI/ADR-RES ovarian) was > 100 µM, the TGI (OVCAR-4 ovarian) was > 100 µM and the TGI (OVCAR-5 ovarian) was > 100 µM. The TGI (OVCAR-8 ovarian) was > 100 µM, the TGI (PC-3 prostate) was > 100 µM and the TGI (RPMI-8226 leukemia) was > 100 µM. The TGI (RXF 393 renal) was > 100 µM, the TGI (SF-268 CNS) was > 100 µM and the TGI (SF-295 CNS) was > 100 µM. For the same molecule, the TGI (SF-539 CNS) was > 100 µM, the TGI (SK-MEL-2 melanoma) was > 100 µM and the TGI (SK-MEL-28 melanoma) was > 100 µM. For the same molecule, the TGI (SK-MEL-5 melanoma) was > 100 µM, the TGI (SK-OV-3 ovarian) was > 100 µM and the TGI (SN12C renal) was > 100 µM. The TGI (SNB-19 CNS) was > 100 µM, the TGI (SNB-75 CNS) was > 100 µM and the TGI (SR leukemia) was > 100 µM. The TGI (SW-620 colon) was > 100 µM, the TGI (T-47D breast) was > 100 µM and the TGI (TK-10 renal) was > 100 µM. For the same molecule, the TGI (U251 CNS) was > 100 µM, the TGI (UACC-257 melanoma) was > 100 µM and the TGI (UACC-62 melanoma) was > 100 µM. The TGI (UO-31 renal) was > 100 µM.
